The record followed here is patent USRE50528E1, “Compounds and compositions for modulating EGFR mutant kinase activities” (Yuhan Corporation, priority 2014, dated 2025).

One assay addresses T1, EGFR mutant T790M (Homo sapiens, UniProt P00533, T790M).
T1 construct: truncated human JAK3, EGFR mutants such as del E746-A750; purchased Carna Biosciences
In words: Kinase inhibition assay, EGFR mutant T790M.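 Note: truncated human EGFR mutant enzyme preincubated two hours with compound, then ATP plus ULight-PolyGT peptide for one hour, Europium-labeled antibody LANCE detection, IC50.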 Particulars: biochemical potency.

The next assay concerns the target T2, SYK (Homo sapiens, UniProt P43405).
T2 construct: Purified human, full-length SYK, KDR; purchased Carna Biosciences
In words: Kinase inhibition assay, SYK.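 Note: purified full-length human SYK pre-incubated 30 min with compound, then ULight-TK peptide phosphorylation for 1 h, detected with Europium-labeled antibody in Lance buffer.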 Format: biochemical. The settings on record: biochemical potency.

The target of assay [1] is T3, EGFR mutant Del19 (E746-A750) (Homo sapiens, UniProt P00533, DEL746-750).
T3 construct: truncated human JAK3, EGFR mutants such as del E746-A750; purchased Carna Biosciences
In words: Kinase inhibition assay, EGFR del E746-A750.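 Note: truncated human EGFR mutant kinase, two-hour preincubation with compound, then one-hour reaction with ATP and ULight-PolyGT peptide, LANCE Europium-antibody phosphorylation readout, IC50.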 The settings on record: read-out: EGFR mutants Del19 (E746-A750). Format: biochemical.

A further assay deals with T4, EGFR mutant L858R (Homo sapiens, UniProt P00533, L858R).
T4 construct: truncated human JAK3, EGFR mutants such as del E746-A750; purchased Carna Biosciences
In words: Kinase inhibition assay, EGFR L858R.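 Note: truncated human EGFR L858R kinase with compound preincubation, ULight-PolyGT peptide phosphorylation read by Europium-antibody Lance detection, IC50.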 Type of assay: biochemical. Particulars: read-out: EGFR mutants L858R.

In the next assay the target is T5, EGFR mutant L858R/T790M (Homo sapiens, UniProt P00533, L858R/T790M).
T5 construct: truncated human JAK3, EGFR mutants such as del E746-A750; purchased Carna Biosciences
The assay can be described thus: Kinase inhibition assay, EGFR L858R/T790M.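 Note: truncated human enzyme preincubated two hours with compound, then one hour with one millimolar ATP and ULight-PolyGT peptide, Europium-labeled antibody detection, IC50.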 Particulars: read-out: EGFR mutants L858R/T790M. Format: biochemical.

As for `C=CC(=O)Nc1cc(Nc2nccc(-n3cc(CN4CCC4)c(C(C)C)n3)n2)c(OC)cc1N1CCCC1` [Compound 117, N-(5-(4-(4-(azetidin-1-ylmethyl)-3-isopropyl-1H-pyrazol-1-yl)pyrimidin-2-ylamino)-4-methoxy-2-(pyrrolidin-1-yl)phenyl)acrylamide], the figures for the IC50 on EGFR mutant T790M and on SYK were less than 20 nM and more than 1000 nM, respectively.

As for `C=CC(=O)Nc1cc(Nc2nccc(-n3cc(CN4CCC4)c(C)n3)n2)c(OC)cc1N1CCCCC1` [Compound 18, N-(5-(4-(4-(azetidin-1-ylmethyl)-3-methyl-1H-pyrazol-1-yl)pyrimidin-2-ylamino)-4-methoxy-2-(piperidin-1-yl)phenyl)acrylamide], the results for the IC50 against EGFR mutant T790M and on SYK were less than 20 nM and more than 1000 nM, respectively.

With `C=CC(=O)Nc1cc(Nc2nccc(-n3cc(CN4CCC4)c(C)n3)n2)c(OC)cc1N(C)CCN(C)C` [Compound 16, N-(5-(4-(4-(azetidin-1-ylmethyl)-3-methyl-1H-pyrazol-1-yl)pyrimidin-2-ylamino)-2-((2-(dimethylamino)ethyl)(methyl)amino)-4-methoxyphenyl)acrylamide], the IC50 is 20 to 200 nM on EGFR mutant T790M and more than 1000 nM at SYK.

`C=CC(=O)Nc1cc(Nc2nccc(-n3cc(CN4CCC4)c(C(C)(C)C)n3)n2)c(OC)cc1N(C)C1COC1` [Compound 103, N-(5-(4-(4-(azetidin-1-ylmethyl)-3-tert-butyl-1H-pyrazol-1-yl)pyrimidin-2-ylamino)-4-methoxy-2-(methyl(oxetan-3-yl)amino)phenyl)acrylamide]: the IC50 (against EGFR mutant T790M; in assay [1]; on EGFR mutant L858R; at EGFR mutant L858R/T790M) was less than 20 nM in each case.

As to `C=CC(=O)Nc1cc(Nc2nccc(-n3cc(CN4CCC4)c(C(C)(C)C)n3)n2)c(OC)cc1N1CCCC1` [Compound 105, N-(5-(4-(4-(azetidin-1-ylmethyl)-3-tert-butyl-1H-pyrazol-1-yl)pyrimidin-2-ylamino)-4-methoxy-2-(pyrrolidin-1-yl)phenyl)acrylamide], the IC50 is 20 to 200 nM at EGFR mutant T790M and more than 1000 nM against SYK.

Consider `C=CC(=O)Nc1cc(Nc2nccc(-n3cc(CN4CCC4)c(-c4ccccc4)n3)n2)c(OC)cc1N1CCCC1` [Compound 99, N-(5-(4-(4-(azetidin-1-ylmethyl)-3-phenyl-1H-pyrazol-1-yl)pyrimidin-2-ylamino)-4-methoxy-2-(pyrrolidin-1-yl)phenyl)acrylamide], for which the IC50 against EGFR mutant T790M is 20 to 200 nM; in assay [1], less than 20 nM; at EGFR mutant L858R, 20 to 200 nM; at EGFR mutant L858R/T790M, 20 to 200 nM.

On to `C=CC(=O)Nc1cc(Nc2ncc(C)c(-n3cc(CN4CC(O)C4)c(C)n3)n2)c(OC)cc1N1CCOCC1` [Compound 24, N-(5-(4-(4-((3-hydroxyazetidin-1-yl)methyl)-3-methyl-1H-pyrazol-1-yl)-5-methylpyrimidin-2-ylamino)-4-methoxy-2-morpholinophenyl)acrylamide], for which the values for the IC50 against EGFR mutant T790M and against SYK were less than 20 nM and 201 to 1000 nM, respectively.

As to `C=CC(=O)Nc1cc(Nc2nccc(-n3cc(CN(C)C)c(C(C)(C)C)n3)n2)c(OC)cc1N1CCCC1` [Compound 104, N-(5-(4-(3-tert-butyl-4-((dimethylamino)methyl)-1H-pyrazol-1-yl)pyrimidin-2-ylamino)-4-methoxy-2-(pyrrolidin-1-yl)phenyl)acrylamide], the IC50 against EGFR mutant T790M was less than 20 nM; at SYK it was more than 1000 nM.

In the case of `C=CC(=O)Nc1cc(Nc2nccc(-n3cc(CN(C)C)c(-c4ccccc4)n3)n2)c(OC)cc1N1CCCC1` [Compound 98, N-(5-(4-(4-((dimethylamino)methyl)-3-phenyl-1H-pyrazol-1-yl)pyrimidin-2-ylamino)-4-methoxy-2-(pyrrolidin-1-yl)phenyl)acrylamide], the IC50 against EGFR mutant T790M was 20 to 200 nM; in assay [1], less than 20 nM; on EGFR mutant L858R, 20 to 200 nM; on EGFR mutant L858R/T790M it was 20 to 200 nM.

As to `C=CC(=O)Nc1cc(Nc2nccc(-n3cc(CN4CCC4)c(C4CC4)n3)n2)c(OC)cc1N1CCCC1` [Compound 111, N-(5-(4-(4-(azetidin-1-ylmethyl)-3-cyclopropyl-1H-pyrazol-1-yl)pyrimidin-2-ylamino)-4-methoxy-2-(pyrrolidin-1-yl)phenyl)acrylamide], the IC50 against EGFR mutant T790M was 20 to 200 nM; against SYK, more than 1000 nM.

Take `C=CC(=O)Nc1ccc(OC)c(Nc2nccc(-n3ccc(C)n3)n2)c1` [Compound 9, N-(4-methoxy-3-(4-(3-methyl-1H-pyrazol-1-yl)pyrimidin-2-ylamino)phenyl)acrylamide]: the IC50 is 20 to 200 nM against EGFR mutant T790M and more than 1000 nM on SYK.

“N-(2-((2-(dimethylamino)ethyl)(methyl)amino)-5-(4-(3-((dimethylamino)methyl)-4-(trifluoromethyl)-1H-pyrrol-1-yl)-5-fluoropyrimidin-2-ylamino)-4-methoxyphenyl)acrylamide [Compound 144]” returned an IC50 against EGFR mutant T790M of less than 20 nM.

As for `C=CC(=O)Nc1ccc(OC)c(Nc2ncc(C)c(-n3cc(CN4CC(O)C4)cn3)n2)c1` [Compound 11, N-(3-(4-(4-((3-hydroxyazetidin-1-yl)methyl)-1H-pyrazol-1-yl)-5-methylpyrimidin-2-ylamino)-4-methoxyphenyl)acrylamide], the IC50 against EGFR mutant T790M is less than 20 nM; against SYK, 20 to 200 nM.

On to `C=CC(=O)Nc1cc(Nc2ncc(F)c(-n3cc(C)c(CN(C)C)c3)n2)c(OC)cc1N(C)C` [Compound 143, N-(2-(dimethylamino)-5-(4-(3-((dimethylamino)methyl)-4-methyl-1H-pyrrol-1-yl)-5-fluoropyrimidin-2-ylamino)-4-methoxyphenyl)acrylamide], for which the IC50 against EGFR mutant T790M is less than 20 nM; at SYK it was 201 to 1000 nM.

Turning to `C=CC(=O)Nc1cc(Nc2ncc(C)c(-n3cc(CN4CC[C@@H](O)C4)c(C)n3)n2)c(OC)cc1N1CCOCC1` [Compound 27, (R)—N-(5-(4-(4-((3-hydroxypyrrolidin-1-yl)methyl)-3-methyl-1H-pyrazol-1-yl)-5-methylpyrimidin-2-ylamino)-4-methoxy-2-morpholinophenyl)acrylamide], the IC50 against EGFR mutant T790M is less than 20 nM; against SYK, more than 1000 nM.

With `C=CC(=O)Nc1cc(Nc2ncc(C)c(-n3cc(CN4C[C@@H](O)[C@@H](O)C4)cn3)n2)c(OC)cc1N1CCOCC1` [Compound 20, N-(5-(4-(4-(((3R,4S)-3,4-dihydroxypyrrolidin-1-yl)methyl)-1H-pyrazol-1-yl)-5-methylpyrimidin-2-ylamino)-4-methoxy-2-morpholinophenyl)acrylamide], the results for the IC50 against EGFR mutant T790M and against SYK were less than 20 nM and 201 to 1000 nM, respectively.

Turning to `C=CC(=O)Nc1cc(Nc2nccc(-n3cc(CN4CC(O)C4)c(C)n3)n2)c(OC)cc1-c1cnn(C)c1` [Compound 58, N-(5-(4-(4-((3-hydroxyazetidin-1-yl)methyl)-3-methyl-1H-pyrazol-1-yl)pyrimidin-2-ylamino)-4-methoxy-2-(1-methyl-1H-pyrazol-4-yl)phenyl)acrylamide], the IC50 on EGFR mutant T790M fell in the range of 20 to 200 nM; at SYK, 201 to 1000 nM.

Turning to `C=CC(=O)Nc1cc(Nc2nccc(-n3cc(CN4CC(F)C4)c(C)n3)n2)c(OC)cc1N1CCOCC1` [Compound 72, N-(5-(4-(4-((3-fluoroazetidin-1-yl)methyl)-3-methyl-1H-pyrazol-1-yl)pyrimidin-2-ylamino)-4-methoxy-2-morpholinophenyl)acrylamide], the IC50 on EGFR mutant T790M was in the range of 20 to 200 nM.
